From ChEMBL document CHEMBL1147043, “Comparative metabolism of radiolabeled muraglitazar in animals and humans by quantitative and qualitative metabolite profiling” (Drug Metab Dispos, 2007)

Experiments:
[1] = Biodistribution in orally dosed cynomolgus monkey urine assessed as 17-hydroxy muraglitazar level by LC/MS analysis; assay type: ADME, organism-based, Macaca fascicularis; details: in vivo, po
Rattus norvegicus [2] = experiment: Biodistribution in orally dosed Sprague-Dawley rat feces assessed as O-demethyl muraglitazar level by LC/MS analysis; assay type: ADME, organism-based; details: in vivo, po
[3] = Biodistribution in orally dosed Beagle dog feces assessed as O-demethyl muraglitazar level by LC/MS analysis; assay type: ADME, organism-based, Canis lupus familiaris; details: in vivo, po
[4] = Biodistribution in orally dosed cynomolgus monkey urine assessed as O-demethyl muraglitazar level by LC/MS analysis; assay type: ADME, organism-based, Macaca fascicularis; details: in vivo, po
[5] = Metabolic stability in cynomolgus monkey hepatocytes assessed as di-oxygenated muraglitazar level by LC/MS analysis relative to control; assay type: ADME, cell-based, Macaca fascicularis, Hepatocyte
Hepatocyte [6] = experiment: Metabolic stability in human hepatocytes assessed as O-demethyl muraglitazar level by LC/MS analysis relative to control; assay type: ADME, cell-based
Hepatocyte [7] = experiment: Metabolic stability in human hepatocytes assessed as hydroxyl-O-demethyl muraglitazar glucuronide level by LC/MS analysis relative to control; assay type: ADME, cell-based
Rattus norvegicus [8] = experiment: Biodistribution in orally dosed Sprague-Dawley rat urine assessed as O-dealkyl-O-demethyl muraglitazar level by LC/MS analysis; assay type: ADME, organism-based; details: in vivo, po
[9] = Biodistribution in orally dosed human urine assessed as O-dealkyl-O-demethyl muraglitazar level by LC/MS analysis; assay type: ADME, organism-based; details: in vivo, po
[10] = Metabolic stability in CD1 mouse hepatocytes assessed as 12-hydroxy-O-demethyl muraglitazar level by LC/MS analysis relative to control; assay type: ADME, cell-based, Hepatocyte
Hepatocyte [11] = experiment: Metabolic stability in Sprague-Dawley rat hepatocytes assessed as 9-hydroxy muraglitazar level by LC/MS analysis relative to control; assay type: ADME, cell-based
[12] = Metabolic stability in cynomolgus monkey hepatocytes assessed as 9-hydroxy muraglitazar level by LC/MS analysis relative to control; assay type: ADME, cell-based, Macaca fascicularis, Hepatocyte
[13] = Biodistribution in orally dosed Beagle dog feces assessed as 12,17-dihydroxy muraglitazar level by LC/MS analysis; assay type: ADME, organism-based, Canis lupus familiaris; details: in vivo, po
Rattus norvegicus [14] = experiment: Biodistribution in orally dosed Sprague-Dawley rat urine assessed as 8-hydroxy muraglitazar level by LC/MS analysis; assay type: ADME, organism-based; details: in vivo, po
[15] = Biodistribution in orally dosed Beagle dog feces assessed as 8-hydroxy muraglitazar level by LC/MS analysis; assay type: ADME, organism-based, Canis lupus familiaris; details: in vivo, po
[16] = Biodistribution in orally dosed human urine assessed as 8-hydroxy muraglitazar level by LC/MS analysis; assay type: ADME, organism-based; details: in vivo, po
[17] = Biodistribution in orally dosed Beagle dog feces assessed as imide derivative of muraglitazar level by LC/MS analysis; assay type: ADME, organism-based, Canis lupus familiaris; details: in vivo, po
[18] = Biodistribution in orally dosed cynomolgus monkey urine assessed as 12-hydroxy muraglitazar level by LC/MS analysis; assay type: ADME, organism-based, Macaca fascicularis; details: in vivo, po
[19] = Biodistribution in orally dosed cynomolgus monkey feces assessed as 12-hydroxy muraglitazar level by LC/MS analysis; assay type: ADME, organism-based, Macaca fascicularis; details: in vivo, po
[20] = Drug concentration in bile duct-cannulated cynomolgus monkey urine assessed as recovery of radioactive dose at 5 mg/kg, po after 48 hrs; assay type: ADME, organism-based, Macaca fascicularis; parameters: dose 5 mg/kg, route oral; details: in vivo
[21] = Drug concentration in bile duct-cannulated cynomolgus monkey bile assessed as recovery of radioactive dose at 5 mg/kg, po after 48 hrs; assay type: ADME, organism-based, Macaca fascicularis; parameters: dose 5 mg/kg, route oral; details: in vivo
[22] = Drug concentration in human urine assessed as recovery of radioactive dose at 10 mg, po after 240 hrs; assay type: ADME, organism-based; details: in vivo
[23] = Drug concentration in Sprague-Dawley rat urine at 11 mg/kg, po after 12 hrs; assay type: ADME, organism-based; parameters: dose 11 mg/kg, route oral; details: read-out: Drug uptake
[24] = Fecal excretion rate in orally dosed Sprague-Dawley rat within 24 hrs; assay type: ADME, organism-based; details: faeces, po, read-out: Activity
Plasma [25] = experiment: Biodistribution in orally dosed cynomolgus monkey plasma assessed as muraglitazar glucuronide level after 1 hr by LC/MS analysis; assay type: ADME, organism-based, Macaca fascicularis; details: in vivo, po
Plasma [26] = experiment: Biodistribution in orally dosed Sprague-Dawley rat plasma assessed as O-demethyl muraglitazar level after 1 hr by LC/MS analysis; assay type: ADME, organism-based; details: in vivo, po
[27] = Biodistribution in orally dosed cynomolgus monkey feces assessed as 12-hydroxy-O-demethyl muraglitazar level by LC/MS analysis; assay type: ADME, organism-based, Macaca fascicularis; details: in vivo, po
Rattus norvegicus [28] = experiment: Biodistribution in orally dosed Sprague-Dawley rat urine assessed as 17-hydroxy-O-demethyl muraglitazar level by LC/MS analysis; assay type: ADME, organism-based; details: in vivo, po
[29] = Drug concentration in bile duct-cannulated Sprague-Dawley rat feces assessed as recovery of radioactive dose at 11 mg/kg, po after 24 hrs; assay type: ADME, organism-based; parameters: dose 11 mg/kg, route oral; details: in vivo
[30] = Drug concentration in Sprague-Dawley rat urine assessed as recovery of radioactive dose at 11 mg/kg, po after 168 hrs; assay type: ADME, organism-based; parameters: dose 11 mg/kg, route oral; details: in vivo
[31] = Drug concentration in bile duct-cannulated Sprague-Dawley rat urine assessed as recovery of radioactive dose at 11 mg/kg, po after 24 hrs; assay type: ADME, organism-based; parameters: dose 11 mg/kg, route oral; details: in vivo
Plasma [32] = experiment: Biodistribution in orally dosed cynomolgus monkey plasma assessed as 12-dihydroxy muraglitazar level after 4 hrs by LC/MS analysis; assay type: ADME, organism-based, Macaca fascicularis; details: in vivo, po
Plasma [33] = experiment: Biodistribution in orally dosed Sprague-Dawley rat plasma assessed as O-demethyl muraglitazar glucuronide level after 12 hrs by LC/MS analysis; assay type: ADME, organism-based; details: in vivo, po
Plasma [34] = experiment: Biodistribution in orally dosed Sprague-Dawley rat plasma assessed as 8-hydroxy-O-demethyl muraglitazar level after 12 hrs by LC/MS analysis; assay type: ADME, organism-based; details: in vivo, po
Plasma [35] = experiment: Biodistribution in orally dosed cynomolgus monkey plasma assessed as 12-hydroxy-O-demethyl muraglitazar level after 4 hrs by LC/MS analysis; assay type: ADME, organism-based, Macaca fascicularis; details: in vivo, po
Plasma [36] = experiment: Biodistribution in orally dosed cynomolgus monkey plasma assessed as 12-hydroxy-O-demethyl muraglitazar level after 12 hrs by LC/MS analysis; assay type: ADME, organism-based, Macaca fascicularis; details: in vivo, po
Plasma [37] = experiment: Biodistribution in orally dosed human plasma assessed as 12-hydroxy-O-demethyl muraglitazar level after 12 hrs by LC/MS analysis; assay type: ADME, organism-based; details: in vivo, po
[38] = Biodistribution in orally dosed cynomolgus monkey feces assessed as 17-hydroxy-O-demethyl muraglitazar level by LC/MS analysis; assay type: ADME, organism-based, Macaca fascicularis; details: in vivo, po
Canis familiaris = experiment: Cmax in Beagle dog at 2 mg/kg, po after 4 hrs; assay type: ADME, organism-based, Canis lupus familiaris; parameters: dose 2 mg/kg, route oral; details: in vivo
Cynomolgus monkey = experiment: AUC (0 to T) in cynomolgus monkey at 1.9 mg/kg, po after 24 hrs; assay type: ADME, organism-based, Macaca fascicularis, Plasma; parameters: time < 24 hr, dose 1.9 mg/kg, route oral; details: in vivo
[39] = Tmax in human at 10 mg, po after 72 hrs; assay type: ADME, organism-based; details: in vivo
[40] = Half life in human at 10 mg, po after 72 hrs; assay type: ADME, organism-based; details: in vivo
[41] = Biodistribution in orally dosed Beagle dog urine assessed as O-dealkyl muraglitazar level by LC/MS analysis; assay type: ADME, organism-based, Canis lupus familiaris; details: in vivo, po
[42] = Biodistribution in orally dosed cynomolgus monkey feces assessed as O-dealkyl muraglitazar level by LC/MS analysis; assay type: ADME, organism-based, Macaca fascicularis; details: in vivo, po

SMILES: COc1ccc(OC(=O)N(CC(=O)O)Cc2ccc(OCCc3nc(-c4ccccc4)oc3C)cc2)cc1 [MURAGLITAZAR]
- Drug uptake [1]: 0.59%
- Drug uptake (Rattus norvegicus [2]): 34.2%
- Drug uptake [3]: 24.92%
- Drug uptake [4]: 0.08%
- Drug uptake [5]: 1.3%
- Drug uptake (Hepatocyte [6]): 2.3%
- Drug uptake (Hepatocyte [7]): < 0.2%
- Drug uptake (Rattus norvegicus [8]): 0.21%
- Drug uptake [9]: 0.04%
- Drug uptake [10]: 3%
- Drug uptake (Hepatocyte [11]): 0.3%
- Drug uptake [12]: 0.6%
- Drug uptake [13]: 0.89%
- Drug uptake (Rattus norvegicus [14]): < 0.01%
- Drug uptake [15]: 0.18%
- Drug uptake [16]: 0.03%
- Drug uptake [17]: 0.89%
- Drug uptake [18]: 0.04%
- Drug uptake [19]: 7.24%
- Drug uptake [20]: 5%
- Drug uptake [21]: 35.7%
- Drug uptake [22]: 2.6%
- dose excreted at 12 h [23]: 0.51%
- dose excreted at 24 h [24]: 85%
- Drug uptake (Plasma [25]): 0.1%
- Drug uptake (Plasma [26]): 2.3%
- Drug uptake [27]: 1.61%
- Drug uptake (Rattus norvegicus [28]): 0.01%
- Drug uptake [29]: 0.55%
- Drug uptake [30]: 1%
- Drug uptake [31]: 0.98%
- Drug uptake (Plasma [32]): 1.6%
- Drug uptake (Plasma [33]): 0.4%
- Drug uptake (Plasma [34]): 0.05%
- Drug uptake (Plasma [35]): 2.9%
- Drug uptake (Plasma [36]): 2.7%
- Drug uptake (Plasma [37]): 1%
- Drug uptake [38]: 3.22%
- Cmax (Canis familiaris): 1 ugequiv/ml
- AUC (Cynomolgus monkey): 71 ugequiv.h/ml
- Tmax [39]: 1 h
- half-life [40]: 19.8 h
- Drug uptake [41]: 0.44%
- Drug uptake [42]: 2.81%
